# Reference: PubChem BioAssay AID449764 (Southern Research Specialized Biocontainment Screening …, 2010)
# pIC50: −log10 of the molar value.
# Tested on: Mycobacterium tuberculosis H37Rv growth inhibition, no glycerol
# Experiment: Confirmatory growth inhibition assay, Mycobacterium tuberculosis H37Rv, absence of glycerol (AID 449764);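 note: growth read after 7 days of incubation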
# Conditions: for IC90: measured here: IC90 growth inhibition
SMILES,pIC50,IC90 [µM]
CC(C)OC(=O)/C(C#N)=C/c1ccc(-c2ccc(SC(F)F)cc2)o1,5.28,8.24
COc1ccc(C(=O)/C=C/c2cc(OC)c(O)c(OC)c2)c(F)c1,4.22,> 100
CC(C)(C)OC(=O)NCCCCCc1nnc(SCc2ccc(F)cc2)o1,4.12,> 100
O=C(N/N=C(\c1ccccc1)c1ccccn1)c1ccccc1Cl,4.92,15.5
C=CCS/C(N)=N\N=C\c1c(O)ccc2ccccc12,4.45,55.4
Cc1cccc(C)c1OCCCCc1c(C)n[nH]c1C,4.75,> 100
c1ccc(-c2ccc(C(c3ccccc3)n3ccnc3)cc2)cc1 (centres undefined),4.63,26.4
C(=N\Nc1ccc2ccccc2n1)/c1ccc2c(c1)OCCO2,5.30,7.13
CCOc1ccc(N2C=Nc3ccc(OCC)cc3C2)cc1,4.10,> 100
CCCCn1c(=O)c(C(=O)Nc2ncccc2C)c(O)c2ccccc21,4.77,22.1
COC(=O)C(C)Oc1cc(C)ccc1COc1ccc(-n2nc(C)n(C(F)F)c2=O)cc1 (centres undefined),4.67,27.5
CC(C)(C)c1ccc(C(=O)NNc2cc(N3CCCCC3)nc(N3CCCCC3)n2)cc1,4.20,74.4
COc1ccc(CCNc2cc(-c3ccccc3)nc3ncnn23)cc1,> 6.70,27.3
NC1=NC2(CCC(c3ccccc3)CC2)n2c(nc3ccccc32)N1 (centres undefined),4.49,43.7
CCOC(=O)N1CCC(n2c(SCC(=O)OCc3ccccc3)nc3ccsc3c2=O)CC1,4.21,> 100
COC(=O)C(CCSC)NC(=O)c1cn(-c2ccc(OC)cc2)c(=O)c2ccccc12 (centres undefined),4.61,> 25
O=C(CN1CCN(c2nc(-c3ccc(F)cc3)cs2)CC1)NCc1ccc2c(c1)OCO2,4.42,55.6
c1ccc2c(c1)ncn2CCCCOc1ccc2c(c1)CCC2,4.62,27.4
C=CCc1c(C)nc(C)nc1N/N=C/c1ccccc1O,5.34,8.85
CCOC(=O)c1csc(-c2snnc2C)n1,4.55,> 100
CSCCCNC(=S)N1CCN(c2ccc(C(C)=O)cc2)CC1,4.43,49.7
COc1ccc(OCCCC(=O)OC(C)C(=O)Nc2ccccc2[N+](=O)[O-])cc1 (centres undefined),4.35,> 100
Cc1ccc(NCc2ccc(O)c3ncccc23)cc1C,4.02,> 100

SMILES,pIC50,IC90 [µM]
Nc1nonc1C(=O)NCCNCc1c(OCc2ccccc2F)ccc2ccccc12,4.40,54.4
CC1CCc2c(C(=O)Nc3nccs3)csc2C1 (centres undefined),4.38,80.3
NC1=NC[C@H](CC2CCCCC2)N1CCc1cc(C(F)(F)F)cc(C(F)(F)F)c1,4.95,12.8
O=C(CCl)N1CCN2C(=O)c3ccccc3C12c1ccc(Cl)cc1 (centres undefined),4.66,32.1
Cc1ccccc1CSc1nsc(N)n1,5.04,24.1
Cc1ccc(C)c(-c2nnc(NC(=O)C3=COCCO3)o2)c1,4.86,30.2
O=c1cc2[nH]c3ccccc3c(=O)n2nc1-c1ccccc1,4.98,15
COC(=O)COc1ccc(-c2nn(C)c(=O)c3ccccc23)cc1,4.88,58.5
CCn1c(SCC(=O)OC2CCCCC2)nc2ccccc2c1=O,4.39,55.1
O=C(Nc1nnc(-c2ccccc2)o1)c1cc(-c2cccs2)nc2ccccc12,5.75,2.94
CCCOc1cccc(-c2nn(-c3ccccc3)cc2/C=C(\C#N)C(=O)NCCCn2ccnc2)c1,4.20,78.3
O=c1c2c(-c3ccccc3)csc2ncn1/N=C/c1ccc(O)c([N+](=O)[O-])c1,4.43,59
CC(C(c1ccc2c(c1)OCO2)c1c(N)n(C)c(=O)n(C)c1=O)[N+](=O)[O-] (centres undefined),5.09,11.8
C[N+](C)(CCCCCC[N+](C)(C)CCCN1C(=O)c2cccc3cccc(c23)C1=O)CCCN1C(=O)c2cccc3cccc(c23)C1=O,5.44,5.15
O=Nc1c2nc3ccccc3n(O)c-2c2ccccc12,4.91,13.7
COc1ccc(-c2nc(CN3CCN(c4cc(C)nc(C)c4)CC3)c(C)o2)c2ccccc12,4.63,25.6
COc1ccc(-n2c(-c3ccc(Cl)cc3)c[n+]3c2CCc2ccccc2-3)cc1,4.71,26.8
Cc1[nH]n(-c2ccccc2)c(=O)c1C(C[N+](=O)[O-])c1ccccc1Cl (centres undefined),4.63,27.1
CC(C)NC(=O)c1onc(CSc2ccc(F)c(F)c2)c1C(=O)O,4.75,22.9
O=[N+]([O-])c1cccnc1N1CCC(c2cc(-c3cccc(C(F)(F)F)c3)n[nH]2)CC1,4.67,34.4
CCOc1ccc(CN(C)CC(O)COC(c2ccc(OC)cc2)c2ccc(OC)cc2)cc1 (centres undefined),4.79,18.9
O=C(NNC(=O)C12CC3CC(CC(C3)C1)C2)c1ccccn1,4.66,24.4
CN(CCCCCCCCCCN(C)C(=O)Oc1cccc([N+](C)(C)C)c1)C(=O)Oc1cccc([N+](C)(C)C)c1,5.66,3.44

SMILES,pIC50,IC90 [µM]
O=C(OCC(=O)N1CCCc2ccccc21)c1ccc(S(=O)(=O)C(F)F)cc1,4.42,49.2
CCCCOC(=O)CSc1nnc(-c2ccc(Cl)cc2Cl)o1,> 6.70,7.21
Cc1ccc(NC(=O)COC(=O)CCc2c[nH]c3ccccc23)cc1[N+](=O)[O-],5.64,6.16
Cc1ccc(C2(c3ccc(C)cc3)CC2C(=O)Nc2ccc([N+](=O)[O-])cc2O)cc1 (centres undefined),4.73,23.6
CCCCOc1ccc(Br)cc1/C(C)=N/NC1=NCCN1,4.65,31.8
Cc1nc(NC(=O)CC(C)C)sc1-c1csc(Nc2ccc(Cl)cc2Cl)n1,4.40,83.7
CCC1C(c2ccccc2)N(C)C(c2ccccc2)CC1(O)c1ccccc1 (centres undefined),4.62,27.6
Cc1cc(C)n(-c2nc(NCCN(C)C)c3c4c(sc3n2)CCCC4)n1,4.81,21.4
CCOc1ccc(NC(=S)Nc2ccc(C)c([N+](=O)[O-])c2)cc1,4.56,> 100
CCN(CC)S(=O)(=O)c1ccc2[nH]cc(C(=O)NCCC3=CCCCC3)c(=O)c2c1,4.04,> 100
CC(=NCc1ccc2c(c1)OCO2)C1=C(O)c2ccccc2C1=O,> 6.70,1.4
O=C(OCn1ncc(Br)c(Br)c1=O)c1ccc(F)cc1,5.54,4.77
O=c1oc2ccccc2c(Nc2ccccc2O)c1[N+](=O)[O-],5.02,13.9
CCC(C)c1ccc2oc(-c3ccc(NC(=O)c4ncn[nH]4)cc3)nc2c1 (centres undefined),5.09,33
Cc1onc(-c2ccccc2Cl)c1C(=O)Oc1cccc2cccnc12,5.47,3.98
c1ccc(CN2CCN(CCCNc3ccc4nnc(-c5ccccc5)n4n3)CC2)cc1,4.66,25.3
CC(=O)Nc1ccc(N2C(C(C)=O)=NN(c3ccc(Cl)cc3)C2c2sccc2C)cc1 (centres undefined),4.18,83.9
C[n+]1c(-c2ccccc2)c2cc(N)ccc2c2ccc(N)cc21,4.78,20.9
C/C(=N\NC(=O)c1cc2ccccc2cc1O)c1ccc(C)o1,4.98,18.7
COc1cc2nc(Nc3ccc(C)c(Cl)c3)nc(N)c2cc1OC,4.23,66.8
Oc1ccccc1/C=N/Nc1ccnc(SCc2ccccc2)n1,5.57,2.95
O=C(NNC1CC(=O)N(c2ccc(Br)cc2)C1=O)c1ccccn1 (centres undefined),4.53,> 100
O=c1c(Cl)c2oc3ccccc3nc-2c2ccccc12,4.92,17.9

SMILES,pIC50,IC90 [µM]
COc1ccc(CN(CCC(c2ccccc2)c2ccc(OC(C)C)cc2)C(=O)CCl)cc1OC (centres undefined),4.80,23.5
CCCCCCCNC(=O)C1(CC2CC(c3cccc(Br)c3)=NO2)CCNCC1 (centres undefined),4.28,80.4
CCOC(=O)CNC(=O)c1sc2ncnc(N3CCc4ccccc4C3)c2c1C,4.10,97.7
CCOC(=O)c1ccc(Oc2nc(NC(C)(C)C)nc(N(C)C)n2)cc1,4.24,> 100
CC(=O)c1ccc(NC(=O)c2cc(CC(C)C)on2)cc1,4.92,13.8
COc1ccc([C@H]2CC(=O)C=C(c3ccc4c5c(cccc35)CC4)C2)cc1,–,> 100
Clc1ccc(-c2cc3ccccc3nc2N2CCCC2)cc1,4.15,> 100
COc1ccc(NC(=O)CSC2CCCCC2)cc1,4.12,> 100
C/C(=N\NC(N)=S)c1ccc(Cl)s1,4.93,23.4
CCN1c2ccccc2N(C)C1(C)c1ccccc1 (centres undefined),5.06,10.5
COc1ccc(-c2nsc3c(N4CCCCC4C)ncnc23)cc1 (centres undefined),4.01,> 100
CCCCCC(=O)NNC(=S)NC(=O)c1ccc([N+](=O)[O-])cc1,5.49,5.86
Cc1cccc(/C=C/c2onc(C)c2[N+](=O)[O-])n1,4.70,26.8
O=C1Nc2ccccc2/C1=N\N=C\C1=C(N2CCOCC2)C(=C\c2ccccc2)/CC1,4.44,> 100
O=C1/C(=C/Nc2ccc3c(c2)OCO3)CCc2ccccc21,4.13,> 100
CCCn1nnnc1NC(=O)c1ccc(C)cc1Cl,4.79,33.1
C/C(=N\N=C(/N)SC1CC(=O)N(c2ccc(Cl)cc2)C1=O)c1cccs1 (centres undefined),4.48,> 100
CCCCN(C)C(=O)Cc1c(OC)ccc2cc(Br)ccc12,4.61,33.5
CC(/C=C/c1ccccc1)=N\NC(N)=S,5.30,12.3
O=C(NC(=S)N1CCc2ccccc21)c1ccc(Br)o1,4.98,15.5
O=C(CSc1nnnn1C1CCCCC1)Nc1nc2c(s1)CCCC2,4.33,53.1
